PMC9804387, “Substrate Peptidomimetic Inhibitors of P. falciparum Plasmepsin X with Potent Antimalarial Activity” (Chemmedchem, 2022)
Values joined by “and” are separate entries in the source; they are usually repeats but may differ in a detail not shown here. Identical values can stand only once. Counter-ions that a name gives are not always drawn.

What was measured:
[1] = system: P. falciparum (Pf) 3D7 parasites; experiment: P. falciparum LDH viability assay; assay type: cell-based; settings: for EC50: Plasmodium falciparum, 3D7, 72 h, LDH activity, 72 h at 37 °C, mean and SD of 3 independent experiments; for fold decrease in parasite activity compared to PMX inhibition: Pf 3D7 EC50 versus PMX IC50
Method: P. falciparum LDH Viability Assay. P. falciparum LDH viability assays were performed as previously described.[40] Briefly, a ten‐point 1 : 3‐fold dilution series of the compounds were pre‐dispensed in 384‐well assay plates (Grenier), and RPMI/AlbuMAX growth media inoculated with synchronized ring stage P. falciparum parasites. 10 mM compound stocks were transferred into the assay plates such that the starting concentration was 10 μM. Plates were incubated for 72 h and then frozen at −80 °C overnight. Lactate dehydrogenase (LDH) activity was quantified with APAD by measuring absorbance of NBT at 650 nm. Data were normalized to percent growth inhibition using the positive control of 0.1 % DMSO alone and the negative control of 100 nM chloroquine. Half‐maximal effective concentration (EC50) values were calculated by GraphPad Prism (8.0.2) software using a nonlinear regression four‐parameter fit analysis using a sigmoidal dose response (variable slope).

in vitro = assay type: cell-based; settings: human
Method: HepG2 Cytotoxicity Assay. HepG2 cytotoxicity assays were performed as previously described.[41] Briefly, human hepatocyte HepG2 cells were cultured in DMEM supplemented with 10 % FCS at 37 °C and 5 % CO2 in a humidified incubator. Cells were seeded at 1000 cells/well in 50 μL in 384‐well plates (Grenier) and compounds incubated in ten‐point 1 : 2‐fold dilution series for 48 h. Cytotoxicity was determined using Cell Titer‐Glo (Promega), normalized to DMSO alone controls (100 % viability) and control compound Bortezomib (0 % viability at 10 μM). CC50 values were calculated by GraphPad Prism (8.0.2) software using a nonlinear regression four‐parameter fit analysis with the sigmoidal dose response (variable slope).

recombinant Pf PMX = biological target: T1, recombinant Pf PMX (Plasmodium falciparum, UniProt Q8IAS0); experiment: PMX biochemical FRET assay (Rh2N fluorogenic substrate cleavage); settings: for IC50: recombinant PMX, fluorogenic substrate (Rh2N) cleavage, 37 °C, 4 h, mean and SD of 4 replicates (Tables 1, 2)
T1 construct: made in house
T1 sequence (Q8IAS0 222-573): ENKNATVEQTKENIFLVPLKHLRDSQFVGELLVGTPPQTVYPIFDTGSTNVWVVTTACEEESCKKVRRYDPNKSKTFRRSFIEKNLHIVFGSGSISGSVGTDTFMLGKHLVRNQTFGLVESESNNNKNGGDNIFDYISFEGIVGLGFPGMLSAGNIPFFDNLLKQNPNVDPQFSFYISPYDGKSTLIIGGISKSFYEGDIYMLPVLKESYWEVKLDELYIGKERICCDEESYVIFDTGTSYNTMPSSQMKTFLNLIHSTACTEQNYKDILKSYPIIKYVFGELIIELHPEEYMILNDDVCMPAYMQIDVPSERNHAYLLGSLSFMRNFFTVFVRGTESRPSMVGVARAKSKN
Method: FRET Protease Assays. FRET protease assays were performed as previously described.[19, 20, 27, 28] Briefly, ten‐point 1 : 3‐fold dilution series of the compounds were prepared in 384‐well black low volume assay plates (Greiner) using an Echo555 (Labcyte). 10 mM compound stocks were transferred into assay plates such that the starting concentration was 90 μM (Pv PMV assays), 11.25 μM (renin, cathepsin D and BACE‐1 assays) or 100 nM and 10 μM (Pf PMX and Pf PMIX assays). All wells were backfilled to 200 nL DMSO such that the DMSO concentration remained constant across the assay plates (1 % final). All compound potency assays were conducted in 20 μL total volume. For each assay, 10 μL of recombinant enzymes in respective assay buffers (Table S2) were dispensed into compound containing assay plates using a Multidrop‐Combi dispenser and allowed to incubate for 15 min. Recombinant Pf PMX, Pf PMIX and Pv PMV were expressed as previously described,[23, 27, 28] and recombinant human aspartyl proteases were purchased commercially. 10 μL of the fluorogenic peptide substrates incubated at 37 °C for the duration and conditions noted in Table S2. Samples were excited at 340 nm and fluorescence emission measured at 492 nm using an Envision fluorescence plate reader (Perkin‐Elmer). The 0 % inhibition control contained DMSO alone (1 % final) and the 100 % inhibition control was in the absence of enzyme. […]
Table S2 . P rotease FRET assay conditions.
PMX as sa y PMIX PM V assay Renin assay Cathepsin D assay BA CE-1 assay E nzy me prot e as e 0.25 nM pro te a se 6 nM prot e as e q ua nti ty 0.1 nM pro t ea se 1.5 nM pro t ea se 2.5 nM pro t ea se 3 nM (Pro te os #R-001) ( Athe ns Re sea rc h (Sigma #S4195) […]
25mM so di um acetate, 100 mM 25 mM M E S, 25 m M 50 mM Tr is, 100 mM 100 mM so di u m 20 mM so dium Buffer acetate, 0.005% sodium chloride and Tris-HCl, 0.01% N aC l, 0. 1% Bri j-35, acetate 0.02% scetate, 0.05% […]
Sub str at e DABCYL- ( DA BC YL ) - DABCYL- DABCYL-(γ- Ab u) - E[E(EDANS)]KPIL […]

| SMILES | EC50 [1] | CC50 at 48 h (in vitro) | IC50 (recombinant Pf PMX) | fold decrease in parasite activity compared to PMX inhibition [1] | fold less active against PMX than the L‐configured Ser (38) counterpart (recombinant Pf PMX; PMX IC50 compared with 38) |
| --- | --- | --- | --- | --- | --- |
| CC(NCC(O)C(Cc1ccccc1)NC(=O)C(Cc1ccccc1)NC(=O)C(CO)NC(=O)OCc1ccccc1)c1ccccc1 (stereo not drawn) [Compd 22, Cbz‐Ser‐Phe‐Phe‐HEA‐Bn(CH3)⋅TFA] | 1400 nM | > 40000 nM | < 1000 nM and 190 nM and 170 nM |  |  |
| CC(C)CC(NC(=O)C(Cc1ccccc1)NC(=O)C(CO)NC(=O)OCc1ccccc1)C(O)CNC(C)c1ccccc1 (stereo not drawn) [Compd 23, Cbz‐Ser‐Phe‐Leu‐HEA‐Bn(CH3)⋅TFA] | 6000 nM | 30000 nM | > 1000 nM and 3600 nM |  |  |
| CC(C)CC(NC(=O)C(CO)NC(=O)OCc1ccccc1)C(=O)NC(Cc1ccccc1)C(O)CNC(C)c1ccccc1 (stereo not drawn) [Compd 24, Cbz‐Ser‐Leu‐Phe‐HEA‐Bn(CH3)⋅TFA] | 1600 nM | > 40000 nM | < 1000 nM and 200 nM |  |  |
| CC(C)CC(NC(=O)C(CO)NC(=O)OCc1ccccc1)C(=O)NC(CC(C)C)C(O)CNC(C)c1ccccc1 (stereo not drawn) [Compd 25, Cbz‐Ser‐Leu‐Leu‐HEA‐Bn(CH3)⋅TFA] | > 11000 nM | > 40000 nM | > 1000 nM and 3500 nM |  |  |
| CC(=O)NC(CC(N)=O)C(=O)NC(CO)C(=O)NC(Cc1ccccc1)C(O)CNC(C)c1ccccc1 (stereo not drawn) [Compd 27, Ac‐Asn‐Ser‐Phe‐HEA‐Bn(CH3)⋅TFA] | 6700 nM | > 40000 nM | 580 nM | approximately 10 fold |  |
| CC(=O)NC(CO)C(=O)NC(CO)C(=O)NC(Cc1ccccc1)C(O)CNC(C)c1ccccc1 (stereo not drawn) [Compd 28, Ac‐Ser‐Ser‐Phe‐HEA‐Bn(CH3)⋅TFA] | > 11000 nM | > 40000 nM | 580 nM | approximately 10 fold |  |
| CC(C)C[C@H](NC(=O)OCc1ccccc1)C(=O)N[C@@H](Cc1ccccc1)[C@H](O)CN[C@H](C)c1ccccc1 [Compd 35, Cbz‐Leu‐Phe‐HEA‐Bn(CH3)] | 600 nM | 18000 nM | 180 nM | approximately 6 fold |  |
| C[C@@H](NC[C@@H](O)[C@H](Cc1ccccc1)NC(=O)[C@H](Cc1ccccc1)NC(=O)OCc1ccccc1)c1ccccc1 [Compd 36, Cbz‐Phe‐Phe‐HEA‐Bn(CH3)] | 650 nM | > 40000 nM | 70 nM | approximately 6 fold |  |
| CC(=O)N[C@@H](CO)C(=O)N[C@@H](Cc1ccccc1)[C@H](O)CN[C@H](C)c1ccccc1 [Compd 39, Ac‐Ser‐Phe‐HEA‐Bn(CH3)⋅TFA] | 6200 nM | > 40000 nM | 3300 nM |  |  |
| C[C@@H](NC[C@@H](O)[C@H](Cc1ccccc1)NC(=O)[C@@H](CO)NC(=O)OCc1ccccc1)c1ccccc1 [Compd 40, Cbz‐D‐Ser‐Phe‐HEA‐Bn(CH3)⋅TFA] | 570 nM | > 40000 nM | 330 nM |  | 7 fold |
| CC(C)C[C@H](NC(=O)[C@H](CO)NC(=O)OCc1ccccc1)[C@H](O)CN[C@H](C)c1ccccc1 [Compd 41, Cbz‐Ser‐Leu‐HEA‐Bn(CH3)⋅TFA] | 3200 nM | > 40000 nM | 1800 nM |  |  |
| CC(O)[C@H](NC(=O)OCc1ccccc1)C(=O)N[C@@H](Cc1ccccc1)[C@H](O)CN[C@H](C)c1ccccc1 (stereo partly drawn) [Compd 42, Cbz‐Thr‐Phe‐HEA‐Bn(CH3)⋅TFA] | 260 nM | > 40000 nM | 160 nM | 2 fold |  |
